Laboratory results as given in US20240299356A1, “DEVELOPMENT OF PRMT-TARGETING THERAPY TO ENHANCE EGFR-TARGETING DRUG EFFICACY IN NSCLC” (The Regents of the University of California, priority 2021, published 2024).

Assays:
Type in all cases: cell-based
PC9 [1] = assay: Drug tolerance assay: surviving fraction of PC9 cells under continuous erlotinib
Text: (§1) FIGS. 1A-1F present exemplary data showing that Type I PRMT inhibition reduced IFNγ signaling-modulated drug tolerance. FIG. 1A present a three-step approach aimed at investigating drug tolerance. FIG. 1B is a line graph showing PC9 cell viabilities under six-day treatment of various doses of erlotinib in the context of IFNγ. […] FIG. 1E is a line graph showing that inhibition of type I PRMTs by MS023 reduced cancer drug tolerance specifically in the IFNγ/STAT1 activation context (normalized to DMSO controls in corresponding IFNγ contexts). Tolerance model for FIG. 1E: PC9 treated with 2.5 μM erlotinib for six days. […] Tolerance model: PC9 treated with 2.5 μM erlotinib.
FIGS. 4A-4F present exemplary data showing that Type I PRMT inhibition reduces IFNγ signaling-modulated drug tolerance. FIG. 4A is a line graph showing the pro-survival effects of IFNγ in a variety of cell types with the cytotoxic inducers. Six-day tolerance assay in lung cancer cells was performed under 2.5 μM erlotinib or 50 μM carboplatin. FIG. 4B is a line graph showing PC9 cells co-treated with IFNγ and cytotoxic stressors (EGFR inhibitor Gefitinib, PARP inhibitor olaparib, death ligand TRAIL, procaspase-3 activator PAC-1), and cell viabilities were measured by Cell TiterGlo after six days. FIG. 4C is a bar-graph showing PRMT1 knockdown efficiency measured by qPCR after two days of siRNA transfection. FIG. 4D is a line graph showing that inhibition of type I PRMTs by MS023 reduced cancer drug tolerance specifically in the IFNγ/STAT1 activation context (normalized to DMSO control in (−) IFNγ context). Tolerance model for FIG. 4D: PC9 treated with 2.5 μM erlotinib for six days. FIG. 4E is a line graph showing that inhibition of type I PRMTs by GSK3368715 reduced cancer drug tolerance specifically in the IFNγ/STAT1 activation context (normalized to DMSO controls in corresponding IFNγ contexts). FIG. 4F is a line graph line graphs showing that inhibition of type I PRMTs by GSK3368715 reduced cancer drug tolerance specifically in the IFNγ/STAT1 activation context (normalized to DMSO control in (−) IFNγ context). Tolerance model for FIGS. 4E and 4F: PC9 treated with 2.5 μM erlotinib for six days.
To investigate drug tolerance, we undertook a three-step approach (FIG. 1A). First, we established reproducible assays to monitor small subpopulations of cancer cells that survive sustained SOC drug treatment. We initially selected the well-established drug-tolerance model provided by the EGFR-mutant lung cancer cell line PC9 and EGFR inhibitor erlotinib^1,2,6. The effect of perturbations to drug tolerance was assessed by quantifying changes to the fraction of the small subpopulation of surviving (drug-tolerant) cells after approximately one week of continuous drug treatment.

PD-L1 [2] = assay: PD-L1 expression in MGH119; details: lung cancer cell MGH119 (FIG. 12A)
STAT1 mRNA = STAT1 mRNA level; details: FIG. 5M
Description: FIG. 5C is a line graph showing that STAT1 modulated cancer drug tolerance, and knockdown of STAT1 by siRNA blocked IFNγ-induced change of drug-tolerant subpopulation size. […] FIG. 5E is a bar graph showing that cancer drug treatment (EGFR drugs and other cytotoxic stressors) enhanced STAT1 expression across multiple cell lines. […] Tolerance model for FIG. 5G: PC9 treated with 2.5 μM erlotinib. FIG. 5H presents exemplary data showing differential gene expression in erlotinib-tolerant PC9 cells comparing to parental cells. The top panel of FIG. 5H is a volcano plot in which IRDS genes are shown in black. The bottom panel of FIG. 5H is a line graph showing the accumulative distribution of adjusted p-values of IRDS genes (gray) versus all genes excluding IRDS genes (black). FIG. 5I is a line graph showing the knockdown of STAT1 by siRNA. FIG. 5J is a line graph showing the homozygous knockout of STAT1 by CRISPR. Tolerance model for FIGS. 5I and 5J: PC9 treated with 2.5 μM erlotinib. […] PC9 cells were pretreated with MS023 for one day, followed by co-treatment of erlotinib, and perturbations of protein synthesis or degradation for 16 hours. Cycloheximide (CHX): protein synthesis inhibitor. Bortezomib (Bort): proteasome inhibitor. Ammonium chloride (NH4Cl)): lysosomal function inhibitor. […] Relative intensities were measured from by mass spectrometry experiments. […]

[3] = test system: solid tumors with wild type splicing factors (e.g. SRSF2, SF3B1, U2AF1); assay: Proliferation of solid tumors with wild type splicing factors; details: FIG. 9
STAT1 = STAT1 protein expression (Western blot)
Description: (§2) FIG. 2A is a line graph showing that knockout of STAT1 by CRISPR blocked IFNγ-induced change of drug-tolerant subpopulation size. […] FIG. 2D is a line graph showing homozygous knockout of STAT1 by CRISPR (tolerance model: PC9 treated with 2.5 μM erlotinib). […] Relative intensities were measured from by mass spectrometry experiments. FIG. 2H is a diagram of STAT1-mediated drug tolerance and type I PRMT vulnerability to eliminate drug tolerance.
FIG. 5C is a line graph showing that STAT1 modulated cancer drug tolerance, and knockdown of STAT1 by siRNA blocked IFNγ-induced change of drug-tolerant subpopulation size. […] FIG. 5E is a bar graph showing that cancer drug treatment (EGFR drugs and other cytotoxic stressors) enhanced STAT1 expression across multiple cell lines. […] Tolerance model for FIG. 5G: PC9 treated with 2.5 μM erlotinib. FIG. 5H presents exemplary data showing differential gene expression in erlotinib-tolerant PC9 cells comparing to parental cells. The top panel of FIG. 5H is a volcano plot in which IRDS genes are shown in black. The bottom panel of FIG. 5H is a line graph showing the accumulative distribution of adjusted p-values of IRDS genes (gray) versus all genes excluding IRDS genes (black). FIG. 5I is a line graph showing the knockdown of STAT1 by siRNA. FIG. 5J is a line graph showing the homozygous knockout of STAT1 by CRISPR. Tolerance model for FIGS. 5I and 5J: PC9 treated with 2.5 μM erlotinib. […] PC9 cells were pretreated with MS023 for one day, followed by co-treatment of erlotinib, and perturbations of protein synthesis or degradation for 16 hours. Cycloheximide (CHX): protein synthesis inhibitor. Bortezomib (Bort): proteasome inhibitor. Ammonium chloride (NH4Cl)): lysosomal function inhibitor. […] FIG. 5P is a bar graph showing type I PRMTs methylate PABP2 at multiple arginine residues. Relative intensities were measured from by mass spectrometry experiments.
What is the connection between type I PRMTs and IFNγ signaling-modulated drug tolerance? […] Previous work in other systems identified STAT1 or its regulator PIAS1 as direct substrates of type I PRMTs^27, though we could not find evidence for their arginine methylation in our system (data not shown).

[4] = test system: PC9 STAT1 knockdown / homozygous knockout cells; assay: Drug tolerance assay in PC9 with STAT1 knockdown or knockout; details: PC9 treated with 2.5 μM erlotinib
Description: as §2
(§3) FIG. 5C is a line graph showing that STAT1 modulated cancer drug tolerance, and knockdown of STAT1 by siRNA blocked IFNγ-induced change of drug-tolerant subpopulation size. […] FIG. 5E is a bar graph showing that cancer drug treatment (EGFR drugs and other cytotoxic stressors) enhanced STAT1 expression across multiple cell lines. […] Tolerance model for FIG. 5G: PC9 treated with 2.5 μM erlotinib. FIG. 5H presents exemplary data showing differential gene expression in erlotinib-tolerant PC9 cells comparing to parental cells. The top panel of FIG. 5H is a volcano plot in which IRDS genes are shown in black. The bottom panel of FIG. 5H is a line graph showing the accumulative distribution of adjusted p-values of IRDS genes (gray) versus all genes excluding IRDS genes (black). FIG. 5I is a line graph showing the knockdown of STAT1 by siRNA. […] Relative intensities were measured from by mass spectrometry experiments. […]

lung cancer cell lines = assay: Drug tolerance in lung cancer cell models
Description: FIGS. 3A-3D present exemplary data showing that Type I PRMT inhibition enhanced cancer drug efficacy. […] FIGS. 3B-3D present data showing the correlation between endogenous STAT1 expression levels and the efficacy of type I PRMT inhibition. […] Gray dots indicate cell lines that were tested for the efficacies of type I PRMT inhibition (by MS023).
(§4) Can type I PRMT inhibition provide a general strategy for reducing drug tolerance and enhance efficacies of SOC drugs? STAT1 signaling can be activated by various sources in tumors, including interferon (IFN)-producing immune cells in the tumor microenvironment, endogenous nucleic acids, and cancer therapeutics (FIG. 2H)^31. […] We also observed efficacy of MS023 with gemcitabine in various pancreatic cancer cell lines (FIG. 6A).

PC9 [5] = assay: Emergence of drug-tolerant persisters, two-month co-treatment with erlotinib; details: IFNγ stimulation, PC9, 2.5 μM erlotinib (FIG. 1F)
Text: as §1
Third, we searched for perturbations that reduce IFNγ-stimulated drug tolerance within a collection of compounds of known biological functions and targets. […] Thus, type I PRMT inhibition is a vulnerability of IFNγ signaling-stimulated drug tolerance.

PD-L1 [6] = assay: PD-L1 expression in MIAPACA2; details: pancreatic cancer cell MIAPACA2 (FIG. 12B)
[7] = test system: pancreatic cancer cell lines; assay: Drug tolerance in gemcitabine-treated pancreatic cancer cell lines; details: FIG. 6A
Text: FIGS. 6A-6E present exemplary data showing that Type I PRMT inhibition enhances cancer drug efficacy.
as §4

PABP2 = PABP2 arginine methylation by mass spectrometry; details: mass spectrometry (FIGS. 2G, 5P, 5Q)
Description: as §2, §3

[8] = test system: AKT, ERK and STAT3 pathway; assay: EGFR bypass signaling (AKT, ERK and STAT3 pathway); details: FIG. 5A

CC(C)Oc1ccc(-c2c[nH]cc2CN(C)CCN)cc1 [MS023]
effect on reducing drug tolerance, dependence on IFNγ (PC9 [1]; PC9 treated with 2.5 μM erlotinib for six days, with or without IFNγ (FIGS. 1E, 4D-4F)): only observed in the presence of IFNγ stimulation
drug tolerance in the PC9/erlotinib model system (PC9 [1]; across a wide range of IFNγ concentrations (FIG. 1C)): reduced drug tolerance
expression of immune checkpoint protein PD-L1 (PD-L1 [2]): reduced the expression
STAT1 mRNA (STAT1 mRNA): did not reduce STAT1 mRNA
proliferation [3]: reduced the proliferation
mechanism of the reduction of STAT1 expression (STAT1; PC9 pretreated one day, then erlotinib plus cycloheximide, bortezomib or NH4Cl for 16 hours (FIG. 5N)): alteration in protein synthesis
total STAT1 protein level (STAT1; independent of IFNγ or erlotinib, multiple cancer cell lines (FIGS. 2E, 5K, 5L)): downregulated total STAT1 protein level
efficacy on drug tolerance in STAT1 homozygous knockout cells ([4]; CRISPR STAT1 knockout (FIGS. 2D, 5J)): no efficacy
efficacy on drug tolerance after STAT1 knockdown ([4]; STAT1 siRNA (FIG. 5I)): dramatically compromised
drug tolerance in osimertinib-treated lung cancers (lung cancer cell lines; EGFR mutant cell lines with T790M resistance mutation, IFNγ stimulation (FIG. 3A middle)): reduced drug tolerance
drug tolerance in carboplatin-treated lung cancers (lung cancer cell lines; EGFR wild type cell lines, IFNγ stimulation (FIG. 3A bottom)): reduced drug tolerance
IC50 on reducing drug tolerance (lung cancer cell lines; lung (erlotinib, osimertinib, carboplatin) and pancreatic (gemcitabine) cancer cell models, IFNγ stimulation): sub- to low-micromolar range
drug tolerance in erlotinib-treated lung cancers (lung cancer cell lines; multiple EGFR mutant cell lines, IFNγ stimulation (FIG. 3A top)): reduced drug tolerance
expansion of drug-tolerant cells (persisters) (PC9 [5]): durably reduced the expansion of drug-tolerant cells
expression of immune checkpoint protein PD-L1 (PD-L1 [6]): reduced the expression
drug tolerance in gemcitabine-treated pancreatic cancers [7]: reduced drug tolerance
dimethylation of PABP2 arginine residues (PABP2): reduced the detected dimethylation of PABP2

C#Cc1cccc(Nc2ncnc3cc(OCCOC)c(OCCOC)cc23)c1 [erlotinib]
total STAT1 as opposed to P-STAT1 (STAT1; combined with IFNγ, PC9 cells (FIG. 5D)): synergizes with IFNγ to increase total STAT1

B1: IFNγ: dimerized soluble cytokine, the only member of the type II class of interferons (protein, UniProt P01579 24-161, looked up)
Interferon gamma: QDPYVKEAENLKKYFNAGHSDVADNGTLFLGILKNWKEESDRKIMQSQIVSFYFKLFKNFKDDQSIQKSVETIKEDMNVKFFNSNKKKRDDFEKLTNYSVTDLNVQRKAIHELIQVMAELSPAAKTGKRKRSQMLFRG
drug tolerance at relatively low doses (PC9 [1]; PC9/erlotinib and other models of tolerance (FIGS. 1B, 4A, 4B)): increase tolerance
drug tolerance at relatively high doses (PC9 [1]; PC9/erlotinib, six-day treatment (FIG. 1B)): decreases drug tolerance
reactivation of major EGFR bypass signaling [8]: did not observe the reactivation
STAT1 signaling (phosphorylation of STAT1, IRF1 transcription, STAT1 upregulation) (STAT1; PC9-erlotinib model system (FIG. 5B)): activates STAT1 signaling
